The text below walks through data of patent publication US11034650B2, “Compounds useful for treating a Mannheimia haemolytica or Histophilus somni infection” (Intervet Inc., priority 2016, dated 2021).

Common to all, as to type: cell-based
Assay [1] relates to Mannheimia haemolytica MH 6357 (M7/2, reference strain, cattle infection strain). The assay can be described thus: MIC, broth-microdilution (CLSI VET01-A4), strain MH 6357. As to conditions: Mannheimia haemolytica strain MH 6357, broth-microdilution; unit assumed. The method in brief: (§1)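 Visual endpoint: the first dilution of a doubling series lacking turbidity gives the MIC; CLSI VET01-S3 interpretive rules applied.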
A general note: In broth dilution the organism is exposed to a series of concentrations in liquid medium.

The test system of assay [2] is Mannheimia haemolytica MH 10720 (154, BRD field isolate). The assay can be described thus: MIC, broth-microdilution (CLSI VET01-A4), strain MH 10720. As to conditions: Mannheimia haemolytica strain MH 10720, broth-microdilution; unit assumed. In outline:
as §1

Assay [3] concerns Mannheimia haemolytica MH 13093 (XB0472-6014.1, BRD field isolate). The assay can be described thus: MIC, broth-microdilution (CLSI VET01-A4), strain MH 13093. As to conditions: Mannheimia haemolytica strain MH 13093, broth-microdilution; unit assumed. The method in brief:
as §1

For assay [4], the system named is Pasteurella multocida PM 6267 (P 2225 (L386), reference strain, mouse infection strain). The assay can be described thus: MIC, broth-microdilution (CLSI VET01-A4), strain PM 6267. The following applies: Pasteurella multocida strain PM 6267, broth-microdilution; unit assumed. The method in brief: as §1
Assay [5] deals with Pasteurella multocida PM 10775 (080130003051, BRD field isolate). The assay can be described thus: MIC, broth-microdilution (CLSI VET01-A4), strain PM 10775. As to conditions: Pasteurella multocida strain PM 10775, broth-microdilution; unit assumed. In outline: as §1
Assay [6] deals with Mannheimia haemolytica MH 6374 (ATCC 33396, reference strain). Nature of the assay: MIC, broth-microdilution (CLSI VET01-A4), strain MH 6374. The following applies: Mannheimia haemolytica strain MH 6374, broth-microdilution; unit assumed. In outline: as §1
The test system of assay [7] is Mannheimia haemolytica MH 12587 (1071, BRD field isolate, macrolide-resistance: erm+, E+). Nature of the assay: MIC, broth-microdilution (CLSI VET01-A4), strain MH 12587. As to conditions: Mannheimia haemolytica strain MH 12587, broth-microdilution; unit assumed. In outline: as §1
Assay [8] deals with Pasteurella multocida PM 12080 (IV102277-0093, BRD field isolate). The assay can be described thus: MIC, broth-microdilution (CLSI VET01-A4), strain PM 12080. As to conditions: Pasteurella multocida strain PM 12080, broth-microdilution; unit assumed. The method in brief: as §1
The subject of assay [9] is Mannheimia haemolytica MH 13065 (XB0446-6003.9, BRD field isolate). Nature of the assay: MIC, broth-microdilution (CLSI VET01-A4), strain MH 13065. The following applies: Mannheimia haemolytica strain MH 13065, broth-microdilution; unit assumed. In outline:
as §1

≈ marks a conversion by molar mass, not a printed value.

In the case of `CC[C@H](C)[C@H](NC(=O)c1ccc(C#Cc2ccc(CN(C)Cc3ccccc3)cc2)cc1)C(=O)NO` [Compound 127], the MIC MH 6357 in [1] was found to be 3.1 mg/L (≈ 6.41 µM). Further, in assay [2], the MIC MH 10720 is 1.6 mg/L (≈ 3.31 µM). In assay [3], this compound had an MIC MH 13093 of 12.5 mg/L (≈ 25.8 µM). The same compound gave an MIC PM 6267 in assay [4] of 1.6 mg/L (≈ 3.31 µM). In [5], the MIC PM 10775 was 0.4 mg/L (≈ 0.827 µM). Besides, the MIC MH 6374 in assay [6] amounted to 6.3 mg/L (≈ 13 µM). In assay [7], this compound gave an MIC MH 12587 of 25 mg/L (≈ 51.7 µM). The MIC PM 12080 in [8] amounted to 1.6 mg/L (≈ 3.31 µM). This compound displayed an MIC MH 13065 in assay [9] of 6.3 mg/L (≈ 13 µM).
Regarding `CC[C@H](C)[C@H](NC(=O)c1ccc(C#Cc2ccc(CNCc3ccc(Cl)cc3)cc2)cc1)C(=O)NO` [Compound 128], the MIC MH 6357 in [1] came out at 3.1 mg/L (≈ 6.15 µM). Also, the MIC MH 10720 in assay [2] came to 0.8 mg/L (≈ 1.59 µM). In assay [3], this compound came in with an MIC MH 13093 of 6.3 mg/L (≈ 12.5 µM). This compound also gave an MIC PM 6267 in assay [4] of 3.1 mg/L (≈ 6.15 µM). In addition, the MIC PM 10775 in assay [5] was 0.4 mg/L (≈ 0.794 µM). In addition, in assay [6], the MIC MH 6374 was 3.1 mg/L (≈ 6.15 µM). The compound further gave an MIC MH 12587 in assay [7] of 12.5 mg/L (≈ 24.8 µM). This compound also displayed an MIC PM 12080 in assay [8] of 3.1 mg/L (≈ 6.15 µM). In addition, in assay [9], the MIC MH 13065 was 3.1 mg/L (≈ 6.15 µM).
`CC[C@H](C)[C@H](NC(=O)c1ccc(C#Cc2ccc(CNCc3ccc(OC)cc3)cc2)cc1)C(=O)NO` [Compound 129]: the MIC MH 6357 in assay [1] was 1.6 mg/L (≈ 3.2 µM). The same compound yielded an MIC MH 10720 in assay [2] of 0.4 mg/L (≈ 0.801 µM). The MIC MH 13093 in assay [3] turned out to be 3.1 mg/L (≈ 6.2 µM). In assay [4], this compound yielded an MIC PM 6267 of 0.8 mg/L (≈ 1.6 µM). The MIC PM 10775 in assay [5] was at most 0.1 mg/L. This compound also registered an MIC MH 6374 in assay [6] of 1.6 mg/L (≈ 3.2 µM). Further, in assay [7], the MIC MH 12587 amounted to 3.1 mg/L (≈ 6.2 µM). This compound displayed an MIC PM 12080 in [8] of 1.6 mg/L (≈ 3.2 µM). Also, the MIC MH 13065 in assay [9] was determined as 1.6 mg/L (≈ 3.2 µM).
`CC[C@H](C)[C@H](NC(=O)c1ccc(C#Cc2ccc(CNCc3ccc(N(C)C)cc3)cc2)cc1)C(=O)NO` [Compound 130] had an MIC MH 6357 in [1] of 3.1 mg/L (≈ 6.05 µM). This compound also had an MIC MH 10720 in assay [2] of 1.6 mg/L (≈ 3.12 µM). The compound also showed an MIC MH 13093 in assay [3] of 6.3 mg/L (≈ 12.3 µM). This compound came in with an MIC PM 6267 in assay [4] of 3.1 mg/L (≈ 6.05 µM). Further, in assay [5], the MIC PM 10775 worked out at 0.4 mg/L (≈ 0.78 µM). The same compound returned an MIC MH 6374 in [6] of 3.1 mg/L (≈ 6.05 µM). In assay [7], this compound showed an MIC MH 12587 of 12.5 mg/L (≈ 24.4 µM). The MIC PM 12080 in assay [8] amounted to 3.1 mg/L (≈ 6.05 µM). Further, the MIC MH 13065 in assay [9] is 6.3 mg/L (≈ 12.3 µM).
With `CC[C@H](C)[C@H](NC(=O)c1ccc(C#Cc2ccc(CNCc3ccncc3)cc2)cc1)C(=O)NO` [Compound 132], the MIC MH 6357 in [1] was found to be 1.6 mg/L (≈ 3.4 µM). Further, in assay [2], the MIC MH 10720 was 0.2 mg/L (≈ 0.425 µM). The MIC MH 13093 in [3] came out at 0.8 mg/L (≈ 1.7 µM). For the same compound, the MIC PM 6267 in assay [4] is at most 0.1 mg/L. In addition, the MIC PM 10775 in assay [5] is at most 0.1 mg/L. Further, the MIC MH 6374 in assay [6] was 0.8 mg/L (≈ 1.7 µM). The same compound came in with an MIC MH 12587 in assay [7] of 0.8 mg/L (≈ 1.7 µM). The compound further registered an MIC PM 12080 in assay [8] of 0.4 mg/L (≈ 0.85 µM). For the same compound, in assay [9], the MIC MH 13065 amounted to 0.8 mg/L (≈ 1.7 µM).
For `CN(C)c1ccc(CNCc2ccc(C#Cc3ccc(C(=O)N[C@@H](CO)C(=O)NO)cc3)cc2)cc1` [Compound 134], the MIC MH 6357 in assay [1] worked out at 25 mg/L (≈ 51.4 µM). Besides, in [2], the MIC MH 10720 is 6.3 mg/L (≈ 12.9 µM). The compound further had an MIC MH 13093 in [3] of 25 mg/L (≈ 51.4 µM). The compound also gave an MIC PM 6267 in [4] of 0.8 mg/L (≈ 1.64 µM). This compound returned an MIC PM 10775 in assay [5] of at most 0.1 mg/L. The compound further returned an MIC MH 6374 in assay [6] of 6.3 mg/L (≈ 12.9 µM). This compound displayed an MIC MH 12587 in assay [7] of 12.5 mg/L (≈ 25.7 µM). Besides, in [8], the MIC PM 12080 was determined as 3.1 mg/L (≈ 6.37 µM). Moreover, in assay [9], the MIC MH 13065 was determined as 12.5 mg/L (≈ 25.7 µM).
As to `CC(C)[C@H](NC(=O)c1ccc(C#Cc2ccc(CN3CCN(c4ccccc4)CC3)cc2)cc1)C(=O)NO` [Compound 135], in assay [1], the MIC MH 6357 was 3.1 mg/L (≈ 6.07 µM). In assay [2], this compound showed an MIC MH 10720 of 0.8 mg/L (≈ 1.57 µM). Besides, the MIC MH 13093 in assay [3] was determined as 25 mg/L (≈ 49 µM). Moreover, in assay [4], the MIC PM 6267 is 0.8 mg/L (≈ 1.57 µM). The compound also came in with an MIC PM 10775 in assay [5] of at most 0.1 mg/L. In assay [6], the MIC MH 6374 worked out at 6.3 mg/L (≈ 12.3 µM). Moreover, in assay [7], the MIC MH 12587 turned out to be 1 mg/L (≈ 1.96 µM). The same compound yielded an MIC PM 12080 in assay [8] of 0.8 mg/L (≈ 1.57 µM). The compound further yielded an MIC MH 13065 in assay [9] of 25 mg/L (≈ 49 µM).
On to `CC[C@H](C)[C@H](NC(=O)c1ccc(C#Cc2ccc(CNCc3nccs3)cc2)cc1)C(=O)NO` [Compound 188], for which the MIC MH 6357 in assay [1] came out at 0.8 mg/L (≈ 1.68 µM). In addition, the MIC MH 10720 in assay [2] was at most 0.1 mg/L. In assay [3], this compound gave an MIC MH 13093 of 0.8 mg/L (≈ 1.68 µM). The compound further showed an MIC PM 6267 in [4] of at most 0.1 mg/L. This compound returned an MIC PM 10775 in assay [5] of at most 0.1 mg/L. In [6], this compound returned an MIC MH 6374 of 1.6 mg/L (≈ 3.36 µM). Besides, in assay [7], the MIC MH 12587 is 3.1 mg/L (≈ 6.5 µM). In addition, the MIC PM 12080 in assay [8] is at most 0.1 mg/L. In [9], the MIC MH 13065 was 0.8 mg/L (≈ 1.68 µM).
